Test results as given in patent US20250179052A1, “PYRIMIDINYL-OXY-QUINOLINE BASED HERBICIDAL COMPOUNDS” (SYNGENTA CROP PROTECTION AG, priority 2022, published 2025).

Assays:
Conditions in all cases: 250 g/ha, evaluated after 13 days, five-point scale
[1] = tested on: Echinochloa crus-galli (ECHCG); experiment: Post-emergence herbicidal glasshouse test; type: in vivo
Setaria faberi (SETFA) [2] = experiment: Pre-emergence herbicidal glasshouse test; type: in vivo
[3] = tested on: Amaranthus retoflexus (AMARE); experiment: Post-emergence herbicidal glasshouse test; type: in vivo
[4] = tested on: Ipomoea hederacea (IPOHE); experiment: Post-emergence herbicidal glasshouse test; type: in vivo
AMAPA [5] = experiment: Post-emergence herbicidal glasshouse test; type: in vivo, Amaranthus tuberculatus
[6] = tested on: Echinochloa crus-galli (ECHCG); experiment: Pre-emergence herbicidal glasshouse test; type: in vivo
[7] = tested on: Amaranthus retoflexus (AMARE); experiment: Pre-emergence herbicidal glasshouse test; type: in vivo
[8] = tested on: Ipomoea hederacea (IPOHE); experiment: Pre-emergence herbicidal glasshouse test; type: in vivo
AMAPA [9] = experiment: Pre-emergence herbicidal glasshouse test; type: in vivo, Amaranthus tuberculatus
Setaria faberi (SETFA) [10] = experiment: Post-emergence herbicidal glasshouse test; type: in vivo

Compound	percentage damage caused to the plant, ECHCG [1]	percentage damage caused to the plant, SETFA (Setaria faberi (SETFA) [2])	percentage damage caused to the plant, AMARE [3]	percentage damage caused to the plant, IPOHE [4]	percentage damage caused to the plant, AMAPA (AMAPA [5])	percentage damage caused to the plant, ECHCG [6]	percentage damage caused to the plant, AMARE [7]	percentage damage caused to the plant, IPOHE [8]	percentage damage caused to the plant, AMAPA (AMAPA [9])	percentage damage caused to the plant, SETFA (Setaria faberi (SETFA) [10])
Cc1nc(C(F)(F)F)nc2cccc(Oc3ncc(Cl)cn3)c12 [Compound 1.001, 5-(5-chloropyrimidin-2-yl)oxy-4-methyl-2-(trifluoromethyl)quinazoline]	3 (3=41-60%)	3 (3=41-60%)	5 (5=81-100%)	2 (2=21-40%)	5 (5=81-100%)	3 (3=41-60%)	5 (5=81-100%)	5 (5=81-100%)	5 (5=81-100%)	4 (4=61-80%)
Cc1nc(C(F)(F)F)nc2c(C#N)ccc(Oc3ncc(Cl)cn3)c12 [Compound 1.064]	1 (1=0-20%)	1 (1=0-20%)	1 (1=0-20%)	1 (1=0-20%)	1 (1=0-20%)	1 (1=0-20%)	1 (1=0-20%)	1 (1=0-20%)	1 (1=0-20%)	1 (1=0-20%)
N#Cc1cc(Cl)cnc1Oc1cccc2nc(C(F)(F)F)ncc12 [Compound 1.007]	3 (3=41-60%)	5 (5=81-100%)	2 (2=21-40%)	2 (2=21-40%)	–	4 (4=61-80%)	4 (4=61-80%)	2 (2=21-40%)	4 (4=61-80%)	4 (4=61-80%)
Cc1nc(C(F)F)nc2cccc(Oc3ncc(F)cn3)c12 [Compound 1.052]	1 (1=0-20%)	–	1 (1=0-20%)	2 (2=21-40%)	1 (1=0-20%)	2 (2=21-40%)	2 (2=21-40%)	1 (1=0-20%)	1 (1=0-20%)	–
Fc1cnc(Oc2ccc(Br)c3nc(C(F)(F)F)ccc23)nc1 [Compound 1.033]	1 (1=0-20%)	–	2 (2=21-40%)	1 (1=0-20%)	1 (1=0-20%)	1 (1=0-20%)	3 (3=41-60%)	1 (1=0-20%)	3 (3=41-60%)	–
COc1nc(C)c2c(Oc3ncc(Cl)cn3)cccc2n1 [Compound 1.024]	1 (1=0-20%)	–	1 (1=0-20%)	1 (1=0-20%)	2 (2=21-40%)	1 (1=0-20%)	3 (3=41-60%)	1 (1=0-20%)	3 (3=41-60%)	–
Fc1cnc(Oc2cccc3nc(C(F)F)ncc23)nc1 [Compound 1.058]	1 (1=0-20%)	–	2 (2=21-40%)	4 (4=61-80%)	2 (2=21-40%)	1 (1=0-20%)	5 (5=81-100%)	3 (3=41-60%)	5 (5=81-100%)	–
Cc1ccc(Oc2ncc(F)cn2)c2cnc(C(F)(F)Cl)nc12 [Compound 1.049]	1 (1=0-20%)	–	2 (2=21-40%)	2 (2=21-40%)	3 (3=41-60%)	1 (1=0-20%)	1 (1=0-20%)	1 (1=0-20%)	1 (1=0-20%)	–
Cc1nc(C(F)F)nc2cccc(Oc3ncc(Br)cn3)c12 [Compound 1.051]	1 (1=0-20%)	–	1 (1=0-20%)	1 (1=0-20%)	1 (1=0-20%)	1 (1=0-20%)	1 (1=0-20%)	1 (1=0-20%)	1 (1=0-20%)	–
